According to PubChem BioAssay (NCI):
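The compound was tested at five concentrations on cells cultured in 96-well plates, with a 48-hour exposure period. At the GI50, growth is halved. TGI: concentration producing complete growth inhibition.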

Assays:
Experiment in all cases: NCI tumour cell line growth inhibition, 48 h
[1] = system: NCI/ADR-RES ovarian
[2] = system: MDA-MB-231 breast
[3] = system: NCI-H522 lung
[4] = system: SF-268 CNS
[5] = system: SW-620 colon
[6] = system: A498 renal
[7] = system: HCT-15 colon
[8] = system: HL-60(TB) leukemia
[9] = system: HT29 colon
[10] = system: MCF7 breast
[11] = system: SR leukemia
[12] = system: RPMI-8226 leukemia
[13] = system: SN12C renal
[14] = system: HCT-116 colon
[15] = system: SK-MEL-28 melanoma
[16] = system: MDA-MB-435
[17] = system: PC-3 prostate
[18] = system: RXF 393 renal
[19] = system: NCI-H23 lung
[20] = system: NCI-H226 lung
[21] = system: LOX IMVI melanoma
[22] = system: BT-549 breast
[23] = system: KM12 colon
[24] = system: EKVX NSCLC
[25] = system: A549 NSCLC
[26] = system: SK-MEL-2 melanoma
[27] = system: HS 578T breast
[28] = system: NCI-H460 lung
[29] = system: DU-145 prostate
[30] = system: OVCAR-3 ovarian
[31] = system: 786-0 renal
[32] = system: OVCAR-4 ovarian
[33] = system: UACC-257 melanoma
[34] = system: SF-295 CNS
[35] = system: CAKI-1 renal
[36] = system: IGROV1 ovarian
[37] = system: UO-31 renal
[38] = system: SF-539 CNS
[39] = system: U251 CNS
[40] = system: K-562 leukemia
[41] = system: SK-MEL-5 melanoma
[42] = system: UACC-62 melanoma
[43] = system: TK-10 renal
[44] = system: MOLT-4 leukemia
[45] = system: M14 melanoma
[46] = system: OVCAR-8 ovarian
[47] = system: COLO 205 colon
[48] = system: OVCAR-5 ovarian
[49] = system: SNB-19 CNS
[50] = system: SNB-75 CNS
[51] = system: ACHN renal
[52] = system: SK-OV-3 ovarian
[53] = system: HOP-92 NSCLC
[54] = system: HOP-62 NSCLC

For `COc1c(N2CCN(CN3C(=O)C(=O)c4cc(Cl)ccc43)C(C)C2)c(F)cc2c(=O)c(C(=O)O)cn(C3CC3)c12` (stereo not given), the GI50 [1] was 76.4 µM, the TGI [1] was greater than 100 µM and the GI50 [2] was 27.3 µM. The TGI [2] was greater than 100 µM, the GI50 [3] was greater than 100 µM and the TGI [3] was greater than 100 µM. It also gave a GI50 [4] of 26.8 µM, a TGI [4] greater than 100 µM and a GI50 [5] of 14.2 µM. For the same molecule, the TGI [5] was 75.8 µM, the GI50 [6] was 11.9 µM and the TGI [6] was 80.9 µM. It also gave a GI50 [7] of 31.7 µM, a TGI [7] greater than 100 µM and a GI50 [8] of 7.29 µM. It also gave a TGI [8] greater than 100 µM, a GI50 [9] of 30.9 µM and a TGI [9] greater than 100 µM. It also gave a GI50 [10] of 26.6 µM, a TGI [10] greater than 100 µM and a GI50 [11] of 4.51 µM. For the same molecule, the TGI [11] was greater than 100 µM, the GI50 [12] was 9.07 µM and the TGI [12] was 25.7 µM. For the same molecule, the GI50 [13] was 48.2 µM, the TGI [13] was greater than 100 µM and the GI50 [14] was 29.8 µM. For the same molecule, the TGI [14] was greater than 100 µM, the GI50 [15] was 97.5 µM and the TGI [15] was greater than 100 µM. It also gave a GI50 [16] of 17.2 µM, a TGI [16] of 36.3 µM and a GI50 [17] of 10.8 µM. The TGI [17] was greater than 100 µM, the GI50 [18] was 34.4 µM and the TGI [18] was greater than 100 µM. It also gave a GI50 [19] of 22 µM, a TGI [19] greater than 100 µM and a GI50 [20] of 71 µM. For the same molecule, the TGI [20] was greater than 100 µM, the GI50 [21] was 19 µM and the TGI [21] was greater than 100 µM. The GI50 [22] was 37.3 µM, the TGI [22] was greater than 100 µM and the GI50 [23] was 35.2 µM. For the same molecule, the TGI [23] was greater than 100 µM, the GI50 [24] was 13.7 µM and the TGI [24] was greater than 100 µM. It also gave a GI50 [25] of 49.4 µM, a TGI [25] greater than 100 µM and a GI50 [26] greater than 100 µM. The TGI [26] was greater than 100 µM, the GI50 [27] was 30.4 µM and the TGI [27] was greater than 100 µM. The GI50 [28] was 30.6 µM, the TGI [28] was greater than 100 µM and the GI50 [29] was 70.6 µM. The TGI [29] was greater than 100 µM, the GI50 [30] was 30 µM and the TGI [30] was greater than 100 µM. It also gave a GI50 [31] greater than 100 µM, a TGI [31] greater than 100 µM and a GI50 [32] of 55.5 µM. It also gave a TGI [32] greater than 100 µM, a GI50 [33] of 27.7 µM and a TGI [33] of 72.9 µM. For the same molecule, the GI50 [34] was 91.7 µM, the TGI [34] was greater than 100 µM and the GI50 [35] was 24.7 µM. For the same molecule, the TGI [35] was greater than 100 µM, the GI50 [36] was greater than 100 µM and the TGI [36] was greater than 100 µM. For the same molecule, the GI50 [37] was greater than 100 µM, the TGI [37] was greater than 100 µM and the GI50 [38] was greater than 100 µM. For the same molecule, the TGI [38] was greater than 100 µM, the GI50 [39] was 41.3 µM and the TGI [39] was greater than 100 µM. The GI50 [40] was 14 µM, the TGI [40] was greater than 100 µM and the GI50 [41] was 15.6 µM. For the same molecule, the TGI [41] was 34.8 µM, the GI50 [42] was 20.6 µM and the TGI [42] was 65.3 µM. The GI50 [43] was 27.1 µM, the TGI [43] was greater than 100 µM and the GI50 [44] was 4.98 µM. It also gave a TGI [44] greater than 100 µM, a GI50 [45] of 69.6 µM and a TGI [45] greater than 100 µM. The GI50 [46] was 51.9 µM, the TGI [46] was greater than 100 µM and the GI50 [47] was 80.6 µM. The TGI [47] was greater than 100 µM, the GI50 [48] was 85.9 µM and the TGI [48] was greater than 100 µM. For the same molecule, the GI50 [49] was 92.2 µM, the TGI [49] was greater than 100 µM and the GI50 [50] was greater than 100 µM. The TGI [50] was greater than 100 µM, the GI50 [51] was 32.1 µM and the TGI [51] was greater than 100 µM.
`S=c1sc2c(Cl)nc(-c3cccnc3)nc2n1-c1ccccc1` gave a GI50 [1] of 3.05 µM, a TGI [1] greater than 100 µM and a GI50 [3] of 1.54 µM. For the same molecule, the TGI [3] was 3.1 µM, the GI50 [6] was greater than 100 µM and the TGI [6] was greater than 100 µM. It also gave a GI50 [11] of 0.556 µM, a TGI [11] of 4.68 µM and a GI50 [25] greater than 100 µM. It also gave a TGI [25] greater than 100 µM, a GI50 [27] of 4.09 µM and a TGI [27] greater than 100 µM. For the same molecule, the GI50 [34] was greater than 100 µM, the TGI [34] was greater than 100 µM and the GI50 [35] was 1.67 µM. For the same molecule, the TGI [35] was 3.14 µM, the GI50 [37] was 1.64 µM and the TGI [37] was 3.33 µM. For the same molecule, the GI50 [52] was greater than 100 µM, the TGI [52] was greater than 100 µM and the GI50 [43] was greater than 100 µM. The TGI [43] was greater than 100 µM, the GI50 [53] was 3.18 µM and the TGI [53] was 30.5 µM. It also gave a GI50 [54] of 3.27 µM, a TGI [54] greater than 100 µM and a GI50 [48] greater than 100 µM. It also gave a TGI [48] greater than 100 µM.
